The IC50 is the midpoint of a concentration-inhibition curve.

This test has as its target T1, C-C chemokine receptor type 9 (Homo sapiens, UniProt P51686).
T1 sequence (P51686 whole entry): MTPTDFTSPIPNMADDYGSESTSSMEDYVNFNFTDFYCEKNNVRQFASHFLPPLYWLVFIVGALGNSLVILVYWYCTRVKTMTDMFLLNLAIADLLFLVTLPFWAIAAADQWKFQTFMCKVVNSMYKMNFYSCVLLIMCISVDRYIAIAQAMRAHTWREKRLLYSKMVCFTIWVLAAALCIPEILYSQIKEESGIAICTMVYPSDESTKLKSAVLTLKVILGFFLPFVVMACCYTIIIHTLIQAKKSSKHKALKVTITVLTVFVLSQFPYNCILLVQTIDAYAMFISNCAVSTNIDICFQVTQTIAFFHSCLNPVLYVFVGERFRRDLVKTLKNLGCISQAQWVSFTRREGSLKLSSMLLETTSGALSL
Description: Antagonist activity against CCR9 in human MOLT4 cells assessed as inhibition of human recombinant TECK-induced calcium response pre-treated before TECK stimulation by Flou-4-AM dye based FLIPR assay. The format is functional, cell-based, MOLT-4.
As to `CC(C)(c1ncco1)c1ccccc1S(=O)(=O)Nc1ccc(Cl)cc1C(=O)c1ccncc1`, the IC50 was below 1000 nM.

Turning to `O=C(c1ccncc1)c1cc(Cl)ccc1NS(=O)(=O)c1ccc(N2CCS(=O)(=O)CC2)cc1`, the IC50 is above 1000 nM.

Regarding `Cc1ccc(C(=O)c2cc(Cl)ccc2NS(=O)(=O)c2ccc(-c3ocnc3C)cc2)cn1`, the IC50 was below 1000 nM.

For `COC(=O)CCc1ccc(S(=O)(=O)Nc2ccc(Cl)cc2C(=O)c2ccc(C)[n+]([O-])c2)cc1`, the IC50 was below 1000 nM.

In the case of `CN(C)C(=O)C(C)(C)c1ccc(S(=O)(=O)Nc2ccc(Cl)cc2C(=O)c2ccncc2)cc1`, the IC50 was above 1000 nM.

As for `O=C(c1ccncc1)c1cc(Cl)ccc1NS(=O)(=O)c1ccc(-c2ccccc2)cc1`, the IC50 was below 1000 nM.

For the compound `COc1ccc(S(=O)(=O)Nc2ccc(Cl)cc2C(=O)N2CCNCC2)cc1`, the IC50 is above 1000 nM.

Take `CS(=O)(=O)c1ccc(S(=O)(=O)Nc2ccc(Cl)cc2C(=O)c2ccncc2)cc1`: the IC50 is above 1000 nM.

For the compound `Cc1ccc(C(=O)c2cc(Cl)ccc2NS(=O)(=O)c2ccc(OC(F)(F)F)cc2)cn1`, the IC50 is below 1000 nM.

As for `CC(C)(C)OC(=O)n1cccc1-c1ccc(S(=O)(=O)Nc2ccc(Cl)cc2C(=O)c2ccncc2)cc1`, the IC50 was above 1000 nM.

In the case of `Cc1ncccc1C(=O)c1cc(Cl)ccc1NS(=O)(=O)c1ccc(S(C)(=O)=O)cc1`, the IC50 was below 1000 nM.

As for `O=C(c1cccnc1)c1cc(Cl)ccc1NS(=O)(=O)c1ccc(OC(F)(F)F)cc1`, the IC50 was below 1000 nM.

In the case of `Cc1ccc(C(=O)c2cc(Cl)ccc2NS(=O)(=O)c2ccc(-c3cnc(C)o3)cc2)cn1`, the IC50 was above 1000 nM.

With `CC(C)Oc1ccc(S(=O)(=O)Nc2ccc(Cl)cc2C(=O)c2ccncc2)cc1`, the IC50 was below 1000 nM.

In the case of `Cc1cccc(C(=O)c2cc(Cl)ccc2NS(=O)(=O)c2ccc(-c3cnc(C)o3)cc2)n1`, the 50% inhibitory concentration (IC50) was above 1000 nM.

With `CC(C)(C)c1ccc(S(=O)(=O)Nc2ccc(Cl)cc2C(=O)c2ccc[n+]([O-])c2)cc1`, the IC50 was below 1000 nM.

On to `Cc1ccc(C(=O)c2cc(Cl)ccc2NS(=O)(=O)c2ccc(-c3cnco3)cc2)cn1`, for which the IC50 is below 1000 nM.

For the compound `C[C@@H]1CN(c2ccc(S(=O)(=O)Nc3ccc(Cl)cc3C(=O)c3cc[n+]([O-])cc3)cc2)C[C@H](C)O1`, the half-inhibitory concentration (IC50) was below 1000 nM.

Take `CC(=O)c1ccc(S(=O)(=O)Nc2ccc(Cl)cc2C(=O)c2ccc(C)nc2)cc1`: the IC50 is above 1000 nM.

In the case of `Cc1ccc(C(=O)c2cc(Cl)ccc2NS(=O)(=O)c2ccc(C(C)(C)C)cc2)c[n+]1[O-]`, the IC50 is below 1000 nM.

As for `O=C(c1ccncc1)c1cc(Cl)ccc1NS(=O)(=O)c1ccc(N2CCCC2)cc1`, the IC50 was below 1000 nM.

Take `CC(C)(C)c1ccc(S(=O)(=O)Nc2ccc(S(=O)(=O)N3CCCC3)cc2C(=O)c2ccncc2)cc1`: the IC50 is above 1000 nM.

On to `Cc1ccc(C(=O)c2cc(Cl)ccc2NS(=O)(=O)c2ccc(-c3nnc(C)o3)cc2)cn1`, for which the IC50 is above 1000 nM.

Regarding `CC(C)(C)c1ccc(S(=O)(=O)Nc2ccc(Cl)cc2C(=O)c2ccnc(C#N)c2)cc1`, the IC50 was below 1000 nM.

In the case of `O=C(c1ccncc1)c1cc(Cl)ccc1NS(=O)(=O)c1ccc(-c2nccs2)cc1`, the IC50 is above 1000 nM.

On to `O=C(c1ccncc1)c1cc(Cl)ccc1NS(=O)(=O)c1ccc(-c2csnn2)cc1`, for which the IC50 is below 1000 nM.

`CC(C)(C)c1ccc(S(=O)(=O)Nc2ccc(Cl)cc2C(=O)c2ccccn2)cc1`: the half-maximal inhibitory concentration (IC50) was below 1000 nM.

On to `Cc1cccc(C(=O)c2cc(Cl)ccc2NS(=O)(=O)c2ccc(C(C)(C)C)cc2)n1`, for which the IC50 is below 1000 nM.

As for `Cc1c(C(=O)c2cc(Cl)ccc2NS(=O)(=O)c2ccc(C(C)(C)C)cc2)ccc[n+]1[O-]`, the IC50 was below 1000 nM.

As for `CS(=O)(=O)c1ccc(S(=O)(=O)Nc2ccc(Cl)cc2C(=O)c2ccc(Cl)[n+]([O-])c2)cc1`, the IC50 is below 1000 nM.

As for `CC(C)(c1ccc(S(=O)(=O)Nc2ccc(Cl)cc2C(=O)c2cc[n+]([O-])cc2)cc1)c1cnco1`, the IC50 is below 1000 nM.

`O=C(c1ccncc1)c1cc(Cl)ccc1NS(=O)(=O)c1ccc(-c2ccoc2)cc1`: the IC50 was below 1000 nM.

Regarding `Cc1ccc(C(=O)c2cc(Cl)ccc2NS(=O)(=O)c2ccc(C(C)(C)c3cnco3)cc2)cn1`, the IC50 was below 1000 nM.

As for `COc1ccc(S(=O)(=O)Nc2ccc(Cl)cc2C(=O)N2CCCC(Cc3ccccc3)C2)cc1` (centres undefined), the IC50 is above 1000 nM.

In the case of `CC(C)(c1ccc(S(=O)(=O)Nc2ccc(Cl)cc2C(=O)c2ccncc2)cc1)c1cnco1`, the IC50 was below 1000 nM.

Take `Cc1ncccc1C(=O)c1cc(Cl)ccc1NS(=O)(=O)c1ccc(OC(C)C)cc1`: the IC50 is below 1000 nM.

`O=C(c1ccncc1)c1cc(Cl)ccc1NS(=O)(=O)c1ccc(-c2ccco2)cc1`: the IC50 was below 1000 nM.

As to `O=C(c1ccncc1)c1cc(Cl)ccc1NS(=O)(=O)c1ccc(I)cc1`, the IC50 is below 1000 nM.

`Cc1ncccc1C(=O)c1cc(Cl)ccc1NS(=O)(=O)c1ccc(C(C)(C)C)cc1`: the IC50 was below 1000 nM.

With `CC(C)(C)c1ccc(S(=O)(=O)Nc2ccc(Cl)cc2C(=O)c2ccnc(Cl)c2)cc1`, the IC50 is below 1000 nM.

Consider `CSc1ccc(C(=O)c2cc(Cl)ccc2NS(=O)(=O)c2ccc(C(C)(C)C)cc2)cn1`, for which the IC50 was below 1000 nM.

On to `O=C(c1ccc[n+]([O-])c1)c1cc(Cl)ccc1NS(=O)(=O)c1ccc(N2CCOCC2)cc1`, for which the IC50 was below 1000 nM.

As to `Cc1cccc(C(=O)c2cc(Cl)ccc2NS(=O)(=O)c2ccc(-c3cnco3)cc2)n1`, the IC50 is below 1000 nM.

On to `O=C(c1ccncc1)c1cc(Cl)ccc1NS(=O)(=O)c1ccc(-c2ncco2)cc1`, for which the IC50 was below 1000 nM.

Turning to `CCOC(=O)CNC(=O)c1cc(Cl)ccc1NS(=O)(=O)c1ccc(OC)cc1`, the IC50 was above 1000 nM.

For `O=C(c1ccncc1)c1cc(Cl)ccc1NS(=O)(=O)c1ccc(-c2cc3ccccc3[nH]2)cc1`, the IC50 was above 1000 nM.

As for `CC1(c2ccc(S(=O)(=O)Nc3ccc(Cl)cc3C(=O)c3ccc[n+]([O-])c3)cc2)CCOCC1`, the IC50 is below 1000 nM.

As to `COC(=O)CCc1ccc(S(=O)(=O)Nc2ccc(Cl)cc2C(=O)c2cccnc2)cc1`, the IC50 is below 1000 nM.

Regarding `O=C(c1ccncc1)c1cc(Cl)ccc1NS(=O)(=O)c1ccc(-c2cncnc2)cc1`, the IC50 was above 1000 nM.

For the compound `Cc1cc(C(=O)c2cc(Cl)ccc2NS(=O)(=O)c2ccc(OC(C)C)cc2)ccn1`, the IC50 was below 1000 nM.

Consider `Cn1nnnc1-c1ccc(S(=O)(=O)Nc2ccc(Cl)cc2C(=O)c2ccncc2)cc1`, for which the IC50 was above 1000 nM.

Take `C[C@@H]1CN(c2ccc(S(=O)(=O)Nc3ccc(Cl)cc3C(=O)c3cc[n+]([O-])cc3)cc2F)C[C@H](C)O1`: the IC50 was below 1000 nM.

Consider `Cc1ccc(C(=O)c2cc(Cl)ccc2NS(=O)(=O)c2ccc(N3CCOCC3)c(F)c2)cn1`, for which the IC50 is below 1000 nM.

`O=C(c1cc[n+]([O-])cc1)c1cc(Cl)ccc1NS(=O)(=O)c1ccc(N2CCOCC2)cc1`: the IC50 is below 1000 nM.

As to `O=C(c1ccncc1)c1cc(Cl)ccc1NS(=O)(=O)c1ccc(-c2cnco2)cc1`, the IC50 is below 1000 nM.

Take `O=C(c1cccnc1)c1cc(Cl)ccc1NS(=O)(=O)c1ccc(N2CCOCC2)cc1`: the IC50 was below 1000 nM.

As for `CC(C)(c1ccc(S(=O)(=O)Nc2ccc(Cl)cc2C(=O)c2cccnc2)cc1)c1ncco1`, the IC50 was below 1000 nM.

With `O=C(c1cc[n+]([O-])cc1)c1cc(Cl)ccc1NS(=O)(=O)c1ccc(-c2ccoc2)cc1`, the IC50 was below 1000 nM.

As to `Cc1ccncc1C(=O)c1cc(Cl)ccc1NS(=O)(=O)c1ccc(-c2cnco2)cc1`, the IC50 was below 1000 nM.
